Source: PubChem BioAssay (NCI)
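Test compounds were applied to cells in 96-well plates for 48 hours at 5 doses. Definition used: TGI = concentration required for complete inhibition of growth.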

Legend:
Test in all cases: NCI tumour cell line growth inhibition, 48 h
NCI-H460 lung = tested on: NCI-H460 lung
ACHN renal = tested on: ACHN renal
SK-MEL-2 melanoma = tested on: SK-MEL-2 melanoma
MALME-3M melanoma = tested on: MALME-3M melanoma
RPMI-8226 leukemia = tested on: RPMI-8226 leukemia
DMS 273 small cell lung = tested on: DMS 273 small cell lung
EKVX NSCLC = tested on: EKVX NSCLC
SF-539 CNS = tested on: SF-539 CNS
CAKI-1 renal = tested on: CAKI-1 renal
UACC-257 melanoma = tested on: UACC-257 melanoma
SNB-78 CNS = tested on: SNB-78 CNS
IGROV1 ovarian = tested on: IGROV1 ovarian
RXF-631 renal = tested on: RXF-631 renal
MOLT-4 leukemia = tested on: MOLT-4 leukemia
SNB-75 CNS = tested on: SNB-75 CNS
LOX IMVI melanoma = tested on: LOX IMVI melanoma
OVCAR-3 ovarian = tested on: OVCAR-3 ovarian
OVCAR-5 ovarian = tested on: OVCAR-5 ovarian
DMS 114 small cell lung = tested on: DMS 114 small cell lung
KM20L2 colon = tested on: KM20L2 colon
SK-MEL-28 melanoma = tested on: SK-MEL-28 melanoma
KM12 colon = tested on: KM12 colon
A549 NSCLC = tested on: A549 NSCLC
K-562 leukemia = tested on: K-562 leukemia
OVCAR-4 ovarian = tested on: OVCAR-4 ovarian
HT29 colon = tested on: HT29 colon
HL-60(TB) leukemia = tested on: HL-60(TB) leukemia
HCT-15 colon = tested on: HCT-15 colon
SF-295 CNS = tested on: SF-295 CNS
M19-MEL melanoma = tested on: M19-MEL melanoma
UACC-62 melanoma = tested on: UACC-62 melanoma
U251 CNS = tested on: U251 CNS
DLD-1 colon = tested on: DLD-1 colon
COLO 205 colon = tested on: COLO 205 colon
NCI-H23 lung = tested on: NCI-H23 lung
A498 renal = tested on: A498 renal
M14 melanoma = tested on: M14 melanoma
HCC-2998 colon = tested on: HCC-2998 colon
CCRF-CEM leukemia = tested on: CCRF-CEM leukemia
SK-OV-3 ovarian = tested on: SK-OV-3 ovarian
HCT-116 colon = tested on: HCT-116 colon
SW-620 colon = tested on: SW-620 colon
786-0 renal = tested on: 786-0 renal
LXFL 529 NSCLC = tested on: LXFL 529 NSCLC
TK-10 renal = tested on: TK-10 renal
OVCAR-8 ovarian = tested on: OVCAR-8 ovarian
HOP-18 NSCLC = tested on: HOP-18 NSCLC
XF 498 CNS = tested on: XF 498 CNS
HOP-62 NSCLC = tested on: HOP-62 NSCLC
SK-MEL-5 melanoma = tested on: SK-MEL-5 melanoma
HOP-92 NSCLC = tested on: HOP-92 NSCLC
SF-268 CNS = tested on: SF-268 CNS
UO-31 renal = tested on: UO-31 renal
NCI-H226 lung = tested on: NCI-H226 lung
RXF 393 renal = tested on: RXF 393 renal
SR leukemia = tested on: SR leukemia
NCI-H522 lung = tested on: NCI-H522 lung
SN12C renal = tested on: SN12C renal
SNB-19 CNS = tested on: SNB-19 CNS

In the case of `CC(=O)N1CCc2[nH]c3ccccc3c2CC1`, the TGI (NCI-H460 lung) is reported as over 100 µM, the TGI (ACHN renal) is reported as over 100 µM and the TGI (SK-MEL-2 melanoma) is reported as over 100 µM. It also gave a TGI (MALME-3M melanoma) of over 100 µM, a TGI (RPMI-8226 leukemia) of over 100 µM and a TGI (DMS 273 small cell lung) of over 100 µM. It also gave a TGI (EKVX NSCLC) of over 100 µM, a TGI (SF-539 CNS) of over 100 µM and a TGI (CAKI-1 renal) of over 100 µM. It also gave a TGI (UACC-257 melanoma) of over 100 µM, a TGI (SNB-78 CNS) of over 100 µM and a TGI (IGROV1 ovarian) of over 100 µM. For the same compound, the TGI (RXF-631 renal) was over 100 µM, the TGI (MOLT-4 leukemia) was over 100 µM and the TGI (SNB-75 CNS) was 98.9 µM. For the same compound, the TGI (LOX IMVI melanoma) was over 100 µM, the TGI (OVCAR-3 ovarian) was over 100 µM and the TGI (OVCAR-5 ovarian) was over 100 µM. It also gave a TGI (DMS 114 small cell lung) of over 100 µM, a TGI (KM20L2 colon) of over 100 µM and a TGI (SK-MEL-28 melanoma) of over 100 µM. The TGI (KM12 colon) was over 100 µM, the TGI (A549 NSCLC) was over 100 µM and the TGI (K-562 leukemia) was over 100 µM. It also gave a TGI (OVCAR-4 ovarian) of over 100 µM, a TGI (HT29 colon) of over 100 µM and a TGI (HL-60(TB) leukemia) of over 100 µM. The TGI (HCT-15 colon) was over 100 µM, the TGI (SF-295 CNS) was over 100 µM and the TGI (M19-MEL melanoma) was over 100 µM. The TGI (UACC-62 melanoma) was over 100 µM, the TGI (U251 CNS) was over 100 µM and the TGI (DLD-1 colon) was over 100 µM. It also gave a TGI (COLO 205 colon) of over 100 µM, a TGI (NCI-H23 lung) of over 100 µM and a TGI (A498 renal) of over 100 µM. It also gave a TGI (M14 melanoma) of over 100 µM, a TGI (HCC-2998 colon) of over 100 µM and a TGI (CCRF-CEM leukemia) of over 100 µM. For the same compound, the TGI (SK-OV-3 ovarian) was over 100 µM, the TGI (HCT-116 colon) was over 100 µM and the TGI (SW-620 colon) was over 100 µM. The TGI (786-0 renal) was over 100 µM, the TGI (LXFL 529 NSCLC) was over 100 µM and the TGI (TK-10 renal) was over 100 µM. It also gave a TGI (OVCAR-8 ovarian) of over 100 µM, a TGI (HOP-18 NSCLC) of over 100 µM and a TGI (XF 498 CNS) of over 100 µM. The TGI (HOP-62 NSCLC) was over 100 µM, the TGI (SK-MEL-5 melanoma) was over 100 µM and the TGI (HOP-92 NSCLC) was over 100 µM.

With `O=C(O/N=C1/CCCC/C1=C\c1ccccc1)c1ccc(Cl)c(Cl)c1` the TGI (NCI-H460 lung) was over 100 µM, the TGI (ACHN renal) was 30.3 µM and the TGI (SK-MEL-2 melanoma) was over 100 µM. For the same compound, the TGI (MALME-3M melanoma) was over 100 µM, the TGI (RPMI-8226 leukemia) was over 100 µM and the TGI (SF-268 CNS) was 24.6 µM. It also gave a TGI (DMS 273 small cell lung) of 53.8 µM, a TGI (EKVX NSCLC) of over 100 µM and a TGI (SF-539 CNS) of 60 µM. For the same compound, the TGI (CAKI-1 renal) was 67.2 µM, the TGI (UACC-257 melanoma) was over 100 µM and the TGI (SNB-78 CNS) was 39.5 µM. For the same compound, the TGI (IGROV1 ovarian) was 52.5 µM, the TGI (RXF-631 renal) was 31.8 µM and the TGI (UO-31 renal) was 31.8 µM. It also gave a TGI (NCI-H226 lung) of over 100 µM, a TGI (RXF 393 renal) of 60.2 µM and a TGI (MOLT-4 leukemia) of 60.9 µM. It also gave a TGI (SNB-75 CNS) of 61.6 µM, a TGI (LOX IMVI melanoma) of 42.8 µM and a TGI (OVCAR-3 ovarian) of 41 µM. For the same compound, the TGI (OVCAR-5 ovarian) was over 100 µM, the TGI (KM20L2 colon) was over 100 µM and the TGI (SK-MEL-28 melanoma) was 68.4 µM. The TGI (KM12 colon) was over 100 µM, the TGI (A549 NSCLC) was 32.3 µM and the TGI (K-562 leukemia) was 34.5 µM. It also gave a TGI (OVCAR-4 ovarian) of 54.4 µM, a TGI (HT29 colon) of 48.9 µM and a TGI (HL-60(TB) leukemia) of 34.1 µM. The TGI (HCT-15 colon) was over 100 µM, the TGI (SF-295 CNS) was over 100 µM and the TGI (M19-MEL melanoma) was over 100 µM. The TGI (UACC-62 melanoma) was 45.6 µM, the TGI (U251 CNS) was 32.9 µM and the TGI (DLD-1 colon) was over 100 µM. It also gave a TGI (COLO 205 colon) of 81.5 µM, a TGI (SR leukemia) of over 100 µM and a TGI (NCI-H23 lung) of 36.7 µM. The TGI (M14 melanoma) was over 100 µM, the TGI (HCC-2998 colon) was over 100 µM and the TGI (CCRF-CEM leukemia) was 53.2 µM. It also gave a TGI (SK-OV-3 ovarian) of over 100 µM, a TGI (NCI-H522 lung) of 33.1 µM and a TGI (HCT-116 colon) of 26.4 µM. The TGI (SN12C renal) was over 100 µM, the TGI (SW-620 colon) was 35.8 µM and the TGI (786-0 renal) was 96.2 µM. It also gave a TGI (LXFL 529 NSCLC) of 27.9 µM, a TGI (TK-10 renal) of 58.8 µM and a TGI (OVCAR-8 ovarian) of 32.5 µM. The TGI (HOP-18 NSCLC) was over 100 µM, the TGI (SNB-19 CNS) was over 100 µM and the TGI (XF 498 CNS) was over 100 µM. It also gave a TGI (HOP-62 NSCLC) of over 100 µM, a TGI (SK-MEL-5 melanoma) of over 100 µM and a TGI (HOP-92 NSCLC) of over 100 µM.

Work on `COC(=O)C(CC(=O)c1ccccc1)c1ccccc1NC(C)=O` (centres undefined) yielded a TGI (NCI-H460 lung) of over 100 µM, a TGI (ACHN renal) of over 100 µM and a TGI (MALME-3M melanoma) of over 100 µM. The TGI (RPMI-8226 leukemia) was over 100 µM, the TGI (SF-268 CNS) was over 100 µM and the TGI (EKVX NSCLC) was over 100 µM. The TGI (SF-539 CNS) was over 100 µM, the TGI (CAKI-1 renal) was over 100 µM and the TGI (UACC-257 melanoma) was over 100 µM. It also gave a TGI (SNB-78 CNS) of over 100 µM, a TGI (IGROV1 ovarian) of over 100 µM and a TGI (RXF-631 renal) of over 100 µM. The TGI (UO-31 renal) was over 100 µM, the TGI (NCI-H226 lung) was over 100 µM and the TGI (MOLT-4 leukemia) was over 100 µM. For the same compound, the TGI (SNB-75 CNS) was over 100 µM, the TGI (LOX IMVI melanoma) was over 100 µM and the TGI (OVCAR-3 ovarian) was over 100 µM. The TGI (OVCAR-5 ovarian) was over 100 µM, the TGI (DMS 114 small cell lung) was over 100 µM and the TGI (KM20L2 colon) was over 100 µM. For the same compound, the TGI (SK-MEL-28 melanoma) was over 100 µM, the TGI (KM12 colon) was over 100 µM and the TGI (A549 NSCLC) was over 100 µM. It also gave a TGI (K-562 leukemia) of over 100 µM, a TGI (OVCAR-4 ovarian) of over 100 µM and a TGI (HT29 colon) of over 100 µM. It also gave a TGI (HL-60(TB) leukemia) of over 100 µM, a TGI (HCT-15 colon) of over 100 µM and a TGI (SF-295 CNS) of over 100 µM. It also gave a TGI (M19-MEL melanoma) of over 100 µM, a TGI (UACC-62 melanoma) of over 100 µM and a TGI (U251 CNS) of over 100 µM. For the same compound, the TGI (DLD-1 colon) was over 100 µM, the TGI (COLO 205 colon) was over 100 µM and the TGI (SR leukemia) was over 100 µM. It also gave a TGI (NCI-H23 lung) of over 100 µM, a TGI (A498 renal) of over 100 µM and a TGI (M14 melanoma) of over 100 µM. It also gave a TGI (HCC-2998 colon) of over 100 µM, a TGI (CCRF-CEM leukemia) of over 100 µM and a TGI (SK-OV-3 ovarian) of over 100 µM. For the same compound, the TGI (NCI-H522 lung) was over 100 µM, the TGI (HCT-116 colon) was over 100 µM and the TGI (SN12C renal) was over 100 µM. The TGI (SW-620 colon) was over 100 µM, the TGI (786-0 renal) was over 100 µM and the TGI (LXFL 529 NSCLC) was over 100 µM. It also gave a TGI (TK-10 renal) of over 100 µM, a TGI (OVCAR-8 ovarian) of over 100 µM and a TGI (HOP-18 NSCLC) of over 100 µM. It also gave a TGI (SNB-19 CNS) of over 100 µM, a TGI (XF 498 CNS) of over 100 µM and a TGI (HOP-62 NSCLC) of over 100 µM. The TGI (SK-MEL-5 melanoma) was over 100 µM and the TGI (HOP-92 NSCLC) was over 100 µM.
